Assay results from patent EP0593348A1, “Thiazolidine dione derivatives, process for their preparation and pharmaceutical compositions containing them” (ADIR ET COMPAGNIE, priority 1992, dated 1994).
Like-named read-outs stand apart in the source and are kept apart here.

How the values were obtained:
souris ob/ob = test: Hypoglycaemic activity in a non-insulin-dependent diabetes (NIDDM) model, ob/ob mice; assay type: in vivo; settings: oral, 4 days, base 100, reached at the dose given
Excerpt: A/ Etude de l'activité des composés de l'invention sur un modèle de diabète non insulino-dépendant (NIDDM).
Les animaux (souris ob/ob) sont traités chaque jour, pendant 4 jours, en administrant par voie orale, les composés de l'invention en suspension dans une solution à 20 % de gomme du Sénégal. Avant et après traitement, soit à J0 et à J5, le sang est prélevé par ponction du sinus orbital et la glycémie est déterminée. Le tableau 1 présente les doses des différents produits à administrer pour obtenir le même effet hypoglycémiant (base 100).

rats Zucker Fa/Fa mâles = test: Model of reduced glucose tolerance with hyperinsulinaemia and hyperlipaemia, male Zucker Fa/Fa rats; assay type: in vivo; settings: 5 mg/kg/jour oral for 10 days; for Glycémie (%) / Plasma insuline (%): blood on day 11, control = 100; for Poids ΔP% J₁₁-J₁: control = +100; for AGL (%): plasma free fatty acids; for AGL (%) / TG (%): control = 100; for TG (%): plasma triglycerides
Method: B/ Etude de l'activité des composés de l'invention sur un modèle de tolérance au glucose diminuée associée à une hyperinsulinémie et une hyperlipémie .
Les animaux (rats Zucker Fa/Fa mâles) sont traités, chaque jour, pendant 10 jours, en administrant, par voie orale, les composés de l'invention à la dose de 5 mg/kg/jour en suspension dans une solution à 20 % de gomme du Sénégal. Le 11ème jour, les animaux sont sacrifiés et le sang recueilli afin de déterminer la glycémie, les triglycérides plasmatiques et l'insuline immuno-réactive. D'autre part, les animaux sont pesés avant et après traitement.
Dans ces conditions, les composés de l'invention n'ont pas d'influence sur le taux de glucose circulant mais diminuent le taux de triglycérides (TG) et d'acides gras libres plasmatiques (AGL) ainsi que celui de l'insuline immuno-réactive. Cette activité est égale ou supérieure à celle d'autres dérivés de thiazolidinedione de référence.

rats SDCD mâles = settings: rat, in vivo
Excerpt: Administrés per os à des rats SDCD mâles pesant 175 g les produits sont sans effet sur les éléments figurés du sang et le volume plasmatique, à la différence de la pioglitazone : […]

SMILES: O=C1NC(=O)C(Cc2ccc(CCNC(=O)c3ccccc3O)cc2)S1 (racemic) [Exemple 3, (R,S) 5-{4-[2-(salicyloyamino) éthyl]benzyl} thiazolidine-2,4-dione]
- Pouvoir hypoglycémiant (souris ob/ob): 100

SMILES: O=C(CC(c1ccccc1)c1ccccc1)NCCc1ccc(CC2SC(=O)NC2=O)cc1 (racemic) [Exemple 6, (R,S) 5-{4-[2-(3,3-diphénylpropionamido)éthyl]benzyl}thiazolidine-2,4-dione]
- Pouvoir hypoglycémiant (souris ob/ob): 100

SMILES: COc1ccc(OC)c(C(=O)NCCc2ccc(CC3SC(=O)NC3=O)cc2)c1 (racemic) [Exemple 7, (R,S) 5-{4-[2-(2,5-diméthoxybenzamido)éthyl]benzyl}thiazolidine-2,4-dione]
- Pouvoir hypoglycémiant (souris ob/ob): 100

SMILES: O=C1NC(=O)C(Cc2ccc(CCNC(=O)c3ccco3)cc2)S1 (racemic) [Exemple 14, (R,S) 5-{4-[2-(fur-2-ylcarbonylamino)éthyl]benzyl}thiazolidine-2,4-dione]
- Pouvoir hypoglycémiant (souris ob/ob): 100

SMILES: Cc1cc(C(=O)NCCc2ccc(CC3SC(=O)NC3=O)cc2)no1 (racemic) [Exemple 15, (R,S) 5-{4-[2-(5-méthyl 1,2-oxazol-3-ylcarbonylamino)éthyl]benzyl} thiazolidine-2,4-dione]
- Pouvoir hypoglycémiant (souris ob/ob): 100

SMILES: O=C1NC(=O)C(Cc2ccc(CCNC(=O)c3cnccn3)cc2)S1 (racemic) [Exemple 25, (R,S) 5-{4-[2-(pyrazin-2-ylcarbonylamino)éthyl]benzyl}thiazolidine-2,4-dione]
- Pouvoir hypoglycémiant (souris ob/ob): 100

SMILES: CN(C)c1ccccc1C(=O)NCCc1ccc(CC2SC(=O)NC2=O)cc1 (racemic) [Exemple 28, (R,S) 5-{4-[2-(2-diméthylaminobenzamido)éthyl]benzyl}thiazolidine-2,4-dione]
- Glycémie (%) (rats Zucker Fa/Fa mâles): 99%
- Plasma insuline (%) (rats Zucker Fa/Fa mâles): 75%
- Poids ΔP% J₁₁-J₁ (rats Zucker Fa/Fa mâles): +103%
- AGL (%) (rats Zucker Fa/Fa mâles): 110%
- TG (%) (rats Zucker Fa/Fa mâles): 89%
- Pouvoir hypoglycémiant (souris ob/ob): 100

SMILES: COc1ccc(Cl)cc1C(=O)NCCCc1ccc(CC2SC(=O)NC2=O)cc1 (racemic) [Exemple 33, (R,S) 5-{4-[3-(2-méthoxy-5-chlorobenzamido)propyl]benzyl}thiazolidine-2,4-dione]
- Pouvoir hypoglycémiant (souris ob/ob): 100

SMILES: O=C1NC(=O)C(Cc2ccc(CCNC(=O)c3cccs3)cc2)S1 (racemic) [Exemple 35, (R,S) 5-{4-[2-(thién-2-ylcarbonylamino)éthyl]benzyl}thiazolidine-2,4-dione]
- Pouvoir hypoglycémiant (souris ob/ob): 100

SMILES: COc1ccc(Cl)cc1C(=O)NCc1ccc(CC2SC(=O)NC2=O)cc1 (racemic) [Exemple 36, (R,S) 5-{4-[(5-chloro-2-méthoxybenzamido)méthyl]benzyl}thiazolidine-2,4-dione]
- Pouvoir hypoglycémiant (souris ob/ob): 100

SMILES: CC(C)(C)c1cc(OCCc2ccc(CC3SC(=O)NC3=O)cc2)cc(C(C)(C)C)c1O (racemic) [Exemple 41, (R,S) 5-{4-[2-(3,5-di-tert-butyl-4-hydroxyphénoxy)éthyl]benzyl} thiazolidine-2,4-dione]
- Pouvoir hypoglycémiant (souris ob/ob): 100

SMILES: COc1ccc(C=CC(=O)NCCc2ccc(CC3SC(=O)NC3=O)cc2)cc1OC (racemic) [Exemple 43, (R,S) 5-{4-[2-(3-(3,4-diméthoxyphényl)prop-2-énoylamino)éthyl]benzyl} thiazolidine-2,4-dione]
- Pouvoir hypoglycémiant (souris ob/ob): 100

SMILES: O=C(C=Cc1ccc2c(c1)OCO2)NCCc1ccc(CC2SC(=O)NC2=O)cc1 (racemic) [Exemple 44, (R,S) 5-{4-[2-(3-(3,4-méthylènedioxyphényl)prop-2-énoylamino)éthyl]benzyl} thiazolidine-2,4-dione]
- Pouvoir hypoglycémiant (souris ob/ob): 100

SMILES: O=C1NC(=O)C(Cc2ccc(CCNC(=O)C3c4ccccc4Oc4ccccc43)cc2)S1 (racemic) [Exemple 45, (R,S) 5-{4-[2-(xanthén-9-ylcarbonylamino)éthyl]benzyl}thiazolidine-2,4-dione]
- Pouvoir hypoglycémiant (souris ob/ob): 100

SMILES: Cc1cccc(C)c1C(C(=O)NCCc1ccc(CC2SC(=O)NC2=O)cc1)c1c(C)cccc1C (racemic) [Exemple 46, (R,S) 5-{4-[2-(2,2-bis(2,6-diméthylphényl)acétylamino)éthyl]benzyl} thiazolidine-2,4-dione]
- Pouvoir hypoglycémiant (souris ob/ob): 100

SMILES: CC1(COc2ccc(CC3SC(=O)NC3=O)cc2)CCCCC1 (stereo not drawn) [Ciglitazone, reference compound]
- Pouvoir hypoglycémiant (souris ob/ob): 100

SMILES: COc1ccc(Cl)cc1C(=O)NCCc1ccc(CC2SC(=O)NC2=O)cc1 (stereo not drawn) [Exemple 1, 5-{4-[2-(2-méthoxy 5-chlorobenzamido) éthyl]benzyl} thiazolidine 2,4-dione]
- Glycémie (%) (rats Zucker Fa/Fa mâles): 113%
- Plasma insuline (%) (rats Zucker Fa/Fa mâles): 71%
- Poids ΔP% J₁₁-J₁ (rats Zucker Fa/Fa mâles): +112%
- AGL (%) (rats Zucker Fa/Fa mâles): 83%
- TG (%) (rats Zucker Fa/Fa mâles): 94%
- Globules blancs (rats SDCD mâles; 100 mg/kg): - 6%
- Globules rouges (rats SDCD mâles; 100 mg/kg): - 2%
- Hématocrite (rats SDCD mâles; 100 mg/kg): + 11%
- Hémoglobine (rats SDCD mâles; 100 mg/kg): + 11%
- Globules blancs (rats SDCD mâles; 250 mg/kg): - 4%
- Globules rouges (rats SDCD mâles; 250 mg/kg): - 11%
- Hématocrite (rats SDCD mâles; 250 mg/kg): + 4%
- Hémoglobine (rats SDCD mâles; 250 mg/kg): + 4%
- Pouvoir hypoglycémiant (souris ob/ob): 100

SMILES: O=C1NC(=O)C(Cc2ccc(CCN3C(=O)c4ccccc4C3=O)cc2)S1 (stereo not drawn) [Exemple 4, 5-{4-[2-(phtalimido)éthyl]benzyl}thiazolidine-2,4-dione]
- Glycémie (%) (rats Zucker Fa/Fa mâles): 108%
- Plasma insuline (%) (rats Zucker Fa/Fa mâles): 72%
- Poids ΔP% J₁₁-J₁ (rats Zucker Fa/Fa mâles): +132%
- AGL (%) (rats Zucker Fa/Fa mâles): 108%
- TG (%) (rats Zucker Fa/Fa mâles): 78%
- Pouvoir hypoglycémiant (souris ob/ob): 100

SMILES: COc1ccc(Cl)cc1C(=O)NC[C@@H](O)c1ccc(C[C@H]2SC(=O)NC2=O)cc1 [Exemple 40, (R,S) 5-{4-[1-hydroxy-2-(5-chloro-2-méthoxybenzamido)éthyl]benzyl} thiazolidine-2,4-dione]
- Pouvoir hypoglycémiant (souris ob/ob): 100

SMILES: CCc1ccc(CCOc2ccc(CC3SC(=O)NC3=O)cc2)nc1 (stereo not drawn) [Pioglitazone, reference compound]
- Glycémie (%) (rats Zucker Fa/Fa mâles): 115%
- Plasma insuline (%) (rats Zucker Fa/Fa mâles): 49%
- Poids ΔP% J₁₁-J₁ (rats Zucker Fa/Fa mâles): +320%
- AGL (%) (rats Zucker Fa/Fa mâles): 57%
- TG (%) (rats Zucker Fa/Fa mâles): 35%
- Globules blancs (rats SDCD mâles; 100 mg/kg): - 46%
- Globules rouges (rats SDCD mâles; 100 mg/kg): - 37%
- Hématocrite (rats SDCD mâles; 100 mg/kg): - 26%
- Hémoglobine (rats SDCD mâles; 100 mg/kg): - 29%
